The results in this text go back to US10626094B2 (La Jolla Institute of Allergy & Immunology, priority 2014, dated 2020).

Chain of LMPTP-A (Low Molecular Weight Protein Tyrosine Phosphatase-A) enzyme (P24666 whole entry): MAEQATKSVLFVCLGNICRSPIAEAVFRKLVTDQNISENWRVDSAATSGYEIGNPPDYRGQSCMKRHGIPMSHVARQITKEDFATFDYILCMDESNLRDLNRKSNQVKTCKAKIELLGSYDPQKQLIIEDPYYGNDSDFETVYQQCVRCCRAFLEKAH

One assay has as its target LMPTP-A (Low Molecular Weight Protein Tyrosine Phosphatase-A) enzyme (Homo sapiens (Human), UniProt P24666). As to the kind of experiment: LMPTP primary screening / LMPTP (OMFP) enzyme inhibition assay, fluorescence intensity. Format: biochemical. As to conditions: LMPTP-A, OMFP substrate, method of Example 2; read-out: IC50. The gist of the method: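 Single-concentration screen, test compounds 20 μM final, […]. Enzyme (0.625 nM) and OMFP (400 μM) react 50 min at room temp, dark, in Bis-Tris buffer pH 6.0 containing DTT 1 mM and Triton X-100 0.01%. Read-out: fluorescence intensity.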
Take `NC(=O)c1ccc(-c2cc(N3CCC(Cc4ccc(N)cc4)CC3)c3ccccc3n2)cc1` [Compound I222, 4-(4-{4-[(4-aminophenyl)methyl]piperidyl}-2-quinolyl)benzamide]: the IC50 is > 5000 nM.
For `Fc1cccc(-c2cc(NCCCN3CCCCC3)c3ccccc3n2)c1C(F)(F)F` [Compound I223], the IC50 fell in the range of 801 to 5000 nM.
The same measure, in the same setting: under `c1ccc2c(NCCCN3CCCCC3)cc(-c3ccc4scnc4c3)nc2c1` [Compound I224] stands 801 to 5000 nM; under `Fc1ccc(-c2ccc(-c3cc(NCCCN4CCCCC4)c4ccccc4n3)cc2)cc1` [Compound I225], 801 to 5000 nM; under `CC(C)CNC(=O)c1ccc(-c2cc(NCCCN3CCCCC3)c3ccccc3n2)cc1` [Compound I226], 801 to 5000 nM.
On the same count and under the same terms, under `O=C(NCCO)c1ccc(-c2cc(NCCCN3CCCCC3)c3ccccc3n2)cc1` [Compound I227] stands 801 to 5000 nM; under `CCNC(=O)c1ccc(-c2cc(NCCCN3CCCCC3)c3ccccc3n2)cc1F` [Compound I229], 801 to 5000 nM; under `O=C(NC1CCCCC1)c1ccc(-c2cc(NCCCN3CCCCC3)c3ccccc3n2)cc1` [Compound I230], 801 to 5000 nM.
In the case of `CC(=O)Nc1ccc(-c2cc(NCCCN3CCCCC3)c3ccccc3n2)cc1F` [Compound I232], the IC50 lay within 801 to 5000 nM.
As to `O=S(=O)(c1ccccc1-c1cc(NCCCN2CCCCC2)c2ccccc2n1)N1CCOCC1` [Compound I233], the IC50 was > 5000 nM.
With `O=C(c1ccc(-c2cc(NCCCN3CCCCC3)c3ccccc3n2)cc1)N1CCOCC1` [Compound I234], the IC50 fell in the range of 200 to 800 nM.
With `O=S(=O)(c1ccc(-c2cc(NCCCN3CCCCC3)c3ccccc3n2)cc1)N1CCSCC1` [Compound I235, 4-[(4-{4-[(3-piperidylpropyl)amino]-2-quinolyl}phenyl)sulfonyl]-1,4-thiazaperhydroine], the IC50 was in the range of 200 to 800 nM.
On the same count and under the same terms, under `O=S(=O)(c1ccc(-c2cc(NCCCN3CCCCC3)c3ccccc3n2)cc1)N1CCOCC1` [Compound I236] stands 200 to 800 nM.
On to `CCN1CCC(Cc2cccc(Nc3cc(-c4cccc(NC(C)=O)c4)nc4ccccc34)c2)CC1` [Compound I237, N-{3-[4-({3-[(1-ethyl-4-piperidyl)methyl]phenyl}amino)-2-quinolyl]phenyl}acetamide], for which the 50% inhibitory concentration (IC50) fell in the range of 801 to 5000 nM.
Take `Fc1c(Cl)cccc1-c1cc(NCCCN2CCCCC2)c2ccccc2n1` [Compound I238]: the IC50 lay within 801 to 5000 nM.
On the same count and under the same terms, the result for `CCN(CC)S(=O)(=O)c1ccccc1-c1cc(NCCCN2CCCCC2)c2ccccc2n1` [Compound I240] reads > 5000 nM; that for `C1=C(c2cc(NCCCN3CCCCC3)c3ccccc3n2)OCC1` [Compound I241], > 5000 nM; that for `CCN(CC)S(=O)(=O)c1ccc(C)c(-c2cc(NCCCN3CCCCC3)c3ccccc3n2)c1` [Compound I242], > 5000 nM.
In the case of `c1ccc(-c2ccc(-c3cc(NCCCN4CCCCC4)c4ccccc4n3)cc2)cc1` [Compound I243], the IC50 lay within 801 to 5000 nM.
On to `CCN(CC)S(=O)(=O)c1cccc(-c2cc(NCCCN3CCCCC3)c3ccccc3n2)c1` [Compound I244], for which the IC50 is > 5000 nM.
The same measure, in the same setting: under `c1ccc(CSc2cccc(-c3cc(NCCCN4CCCCC4)c4ccccc4n3)c2)cc1` [Compound I245] stands > 5000 nM.
As for `CCN(CC)S(=O)(=O)c1ccc(-c2cc(NCCCN3CCCCC3)c3ccccc3n2)cc1` [Compound I246], the IC50 lay within 801 to 5000 nM.
`c1ccc2c(NCCCN3CCCCC3)cc(-c3ccc4sccc4c3)nc2c1` [Compound I247]: the IC50 was in the range of 200 to 800 nM.
Turning to `Cc1nc2ccc(-c3cc(NCCCN4CCCCC4)c4ccccc4n3)cc2s1` [Compound I248], the IC50 lay within 801 to 5000 nM.
The same measure, in the same setting: the result for `O=C(NC1CCCC1)c1ccc(-c2cc(NCCCN3CCCCC3)c3ccccc3n2)cc1` [Compound I249] reads 200 to 800 nM.
For the molecule `CC(=O)Nc1cc(C(=O)O)cc(-c2cc(NCCCN3CCCCC3)c3ccccc3n2)c1` [Compound I250], the IC50 fell in the range of 801 to 5000 nM.
With `CNC(=O)c1ccc(-c2cc(NCCCN3CCCCC3)c3ccccc3n2)cc1Cl` [Compound I251], the IC50 was in the range of 200 to 800 nM.
As for `NC(=O)c1ccc(-c2cc(NCCCN3CCCCC3)c3ccccc3n2)c(F)c1` [Compound I252], the IC50 was 200 to 800 nM.
`O=C(NCc1ccccc1)c1ccc(-c2cc(NCCCN3CCCCC3)c3ccccc3n2)cc1` [Compound I253]: the IC50 was 200 to 800 nM.
The same measure, in the same setting: the result for `CC(=O)NCc1ccc(-c2cc(NCCCN3CCCCC3)c3ccccc3n2)cc1` [Compound I255] reads 200 to 800 nM.
In the case of `c1cc2c3c(cc(-c4cc(NCCCN5CCCCC5)c5ccccc5n4)cc3c1)CC2` [Compound I256], the IC50 was 200 to 800 nM.
Take `O=S(=O)(c1ccccc1)n1ccc2cc(-c3cc(NCCCN4CCCCC4)c4ccccc4n3)ccc21` [Compound I260]: the IC50 was in the range of 801 to 5000 nM.
In the case of `N#CCCNC(=O)c1ccc(-c2cc(NCCCN3CCCCC3)c3ccccc3n2)cc1` [Compound I265], the 50% inhibitory concentration (IC50) was 200 to 800 nM.
Same read-out and setting: under `CCN(C)C(=O)c1ccc(-c2cc(NCCCN3CCCCC3)c3ccccc3n2)cc1` [Compound I266] stands 801 to 5000 nM; under `O=C(NC1CC1)c1ccc(-c2cc(NCCCN3CCCCC3)c3ccccc3n2)cc1` [Compound I271], 801 to 5000 nM; under “(2-fluoro-4-{4-[(3-piperidylpropyl)amino](2-quinolyl)}phenyl)-N-methylcarboxamide [Compound I228]”, 801 to 5000 nM.
“(2-morpholin-4-ylethyl)(2-phenyl(4-quinolyl))amine [Compound I180]”: the IC50 fell in the range of 801 to 5000 nM.
With “(3-piperidylpropyl)(2-(3-pyridyl)(4-quinolyl))amine [Compound I147]”, the IC50 was in the range of 801 to 5000 nM.
Regarding “(3-piperidylpropyl)[2-(3,4,5-trifluorophenyl)(4-quinolyl)]amine [Compound I127]”, the IC50 lay within 801 to 5000 nM.
Regarding “N-cyclopropyl(4-{4-[(3-piperidylpropyl)amino](2-quinolyl)}phenyl)carboxamide [Compound I70]”, the IC50 fell in the range of 801 to 5000 nM.
In the case of “N-ethyl-N-methyl(4-{4-[(3-piperidylpropyl)amino](2-quinolyl)}phenyl)carboxamide [Compound I60]”, the IC50 lay within 801 to 5000 nM.
As to “[2-(2,4-dichlorophenyl)(4-quinolyl)](3-piperidylpropyl)amine [Compound I103]”, the IC50 was 801 to 5000 nM.
Regarding “[2-(2,6-dichlorophenyl)(4-quinolyl)](3-piperidylpropyl)amine [Compound I100]”, the IC50 is > 5000 nM.
Take “[2-(3,4-dichlorophenyl)(4-quinolyl)](3-piperidylpropyl)amine [Compound I138]”: the IC50 lay within 801 to 5000 nM.
As for “[2-(3,5-dichlorophenyl)(4-quinolyl)](3-piperidylpropyl)amine [Compound I170]”, the IC50 is 801 to 5000 nM.
Take “[2-(3-chloro-2-prop-2-enyloxy(4-pyridyl))(4-quinolyl)](3-piperidylpropyl)amine [Compound I91]”: the IC50 is > 5000 nM.

Staying with this assay, now noted: SAR discussion.
For the molecule `CSCCCN1CCCCC1` [Entry 64], the “LMPTP (OMFP) potency in words” value is “inactive”.

The assay is the same for the next values; noted with them: Table 1 quinazolinone series; CP sample (cherry pick of DMSO solution from NIH MLSMR); read-out: LMPTP (OMFP) (IC50).
Regarding `Cc1cccc(-c2nc(NCCCN3CCOCC3)c3ccccc3n2)c1` [Entry 1], the IC50 amounted to 7120 nM.

The same assay, now with this note: Table 1 quinazolinone series; P sample (purchased from commercial sources); read-out: LMPTP (OMFP) (IC50).
As to `Cc1cccc(-c2nc(NCCCN3CCOCC3)c3ccccc3n2)c1` [Entry 1], the IC50 is 13500 nM.

The same assay, now with this note: initial screening hits (Scheme 4); read-out: IC50.
With `Cc1cccc(-c2nc(NCCCN3CCOCC3)c3ccccc3n2)c1` [Entry 1], the IC50 came out at 7120 nM.

Staying with this assay, now noted: read-out: LMPTP (OMFP) IC50.
As for `Cc1cccc(-c2nc(NCCCN3CCOCC3)c3ccccc3n2)c1` [Entry 1], the IC50 is 13500 nM.
